# Source: patent US12173018B2, “Penicillin-binding protein inhibitors” (priority 2018, dated 2024)
# Structures can show the parent of a compound that is named as a salt. Where two headings read alike, the source gives them in different places.
# Columns and labels:
# [1] = system: engineered strain of Escherichia coli harboring CTX-M15; assay: microbe, parasite or virus in culture; type: cell-based; details: Escherichia coli, read-out: Microbiological Activity (MIC in mg/L), E. coli DH5α/pLBII-CTX-M15, engineered strain producing CTX-M15
# [2] = system: E. coli DH5α empty pLBII vector control strain; assay: microbe, parasite or virus in culture; type: cell-based, Escherichia coli; details: Escherichia coli, read-out: Microbiological Activity (MIC in mg/L), E. coli DH5α/pLBII
# Method: (§1) Briefly, cryo-preserved bacterial cultures of challenge strains are streaked for isolation on appropriate agar medium, in this case Mueller Hinton II agar. Following incubation to allow growth of the colonies, plates are sealed with parafilm and stored refrigerated for up to two weeks. For preparation of assay inoculum and to ensure low variability, at least 5 colonies are picked from the agar plates with an inoculating loop and aseptically transferred to a culture tube containing 3 mL of Mueller-Hinton Broth (supplemented with divalent cations to required levels based on Manufacturers' certification). The broth culture is grown for 3-5 hours at 37° C. with shaking at 200 rpm. Meanwhile, 2-fold serial dilutions of test compounds are conducted in a 96 well plate with a final volume of 75 μL per well at 2-fold the final desired concentration. After the dilution plates are set up the growing cultures are then diluted in a cuvette containing MH II broth and the optical density is measured at 600 nm. The Inoculum is diluted such that 75 μL of this culture in Mueller-Hinton Broth results in a starting bacterial concentration of 5×10^5 CFU/mL when added to the dilution plates. The plates are incubated for 16-20 hours at 37° C. The MIC values are read visually as the lowest concentration well with no bacterial growth.
# To determine if test compounds were affected by CTX-M15, the most abundant extended spectrum […] in clinical settings worldwide, the inhibition of the growth of an engineered strain of Escherichia coli harboring CTX-M15 was tested. This strain was constructed by cloning the gene encoding CTX-M15 into the NdeI and BamHI restriction endonuclease sites of plasmid pLBII, placing the gene(s) under the control of the Lac promoter. The constructed expression plasmid for CTX-M15 was used to transform competent E. coli DH5α cells to make the engineered strain, including an empty pLBII vector control strain. The classic cell based broth microdilution MIC assay was employed as described above with the addition of control antibiotics, known to be degraded by β-lactamases (Ceftazidime, piperacillin and piperacillin+tazobactam).
# E. coli ATCC 25922 = assay: Broth microdilution MIC, E. coli ATCC 25922; type: cell-based; details: Escherichia coli
# Summary of the method: (§2)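 CLSI broth microdilution in cation-supplemented Mueller-Hinton broth; 2-fold compound dilutions inoculated at 5×10^5 CFU/mL from a 3-5 h log-phase culture. Plates incubated 16-20 hours at 37° C; MIC read visually as lowest concentration with no growth.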
# E. coli AG100 = assay: Broth microdilution MIC, E. coli AG100 (wild-type parent); type: cell-based; details: Escherichia coli; wild-type parent E. coli AG100, broth microdilution; read-out: MIC E. coli AG100
# Summary of the method: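 Broth microdilution in cation-supplemented Mueller-Hinton broth, 2-fold serial compound dilutions, inoculum 5×10^5 CFU/mL from 3-5 h log culture.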
# E. coli 901C = assay: microbe, parasite or virus in culture; type: cell-based; details: Escherichia coli; hyper-permeable E. coli 901C, broth microdilution; read-out: MIC E. coli 901C
# Summary of the method: as §2
# E. coli AG100A = assay: microbe, parasite or virus in culture; type: cell-based; details: Escherichia coli, read-out: MIC E. coli AG100A
# Summary of the method: as §2
# E. coli D22 = assay: microbe, parasite or virus in culture; type: cell-based; details: Escherichia coli; hyper-permeable E. coli D22, broth microdilution; read-out: MIC E. coli D22
# Summary of the method: as §2
# K. pneumoniae SI-117 = assay: microbe, parasite or virus in culture; type: cell-based; details: Klebsiella pneumoniae, SI117, read-out: MIC K. pneumoniae SI-117
# Summary of the method: as §2
# K. pneumoniae UMM = assay: microbe, parasite or virus in culture; type: cell-based; details: Klebsiella pneumoniae; K. pneumoniae UMM producing SHV-5 and KPC-2; read-out: MIC K. pneumoniae UMM
# Summary of the method: as §2
# [3] = system: P. aeruginosa (ΔmexAB-oprM); assay: microbe, parasite or virus in culture; type: cell-based; details: Pseudomonas aeruginosa, read-out: MIC P. aeruginosa ΔmexAB-OprM
# Summary of the method: as §2
# P. aeruginosa ATCC 35151 = assay: microbe, parasite or virus in culture; type: cell-based; details: Pseudomonas aeruginosa, ATCC35151; hyper-permeable P. aeruginosa ATCC 35151; read-out: MIC P. aeruginosa ATCC 35151
# Summary of the method: as §2
# K. pneumoniae 848844 = assay: microbe, parasite or virus in culture; type: cell-based, Klebsiella pneumoniae; details: Klebsiella pneumoniae; K. pneumoniae 848844 producing SHV-11 and KPC-2; read-out: MIC K. pneumoniae 848844
# Summary of the method: as §2
# P. aeruginosa PAO1 = assay: Broth microdilution MIC, P. aeruginosa PAO1; type: cell-based; details: Pseudomonas aeruginosa
# Method: (§3) To determine the ability of test compounds to potentiate the inhibition of the growth of bacterial strains, classic cell based broth microdilution minimum inhibitory concentration (MIC) assays were employed. MIC assays are performed according to CLSI methods except where otherwise noted (CLSI, 2011 and CLSI, 2009). The reference type strain E. coli ATCC 25922, the wild-type parent strain E. coli AG100, the hyper-permeable E. coli 901C and E. coli D22 and the E. coli AG100A strain lacking the acrAB efflux pump encoding genes were used to determine the ability of the PBP inhibitors to penetrate the outer membrane of gram-negative bacteria and inhibit bacterial growth. […] The P. aeruginosa PAO1, P. aeruginosa ATCC 27853 and A. baumannii ATCC 19606, along with the hyper-permeable P. aeruginosa ATCC 35151 and an engineered efflux pump-compromised strain of P. aeruginosa (ΔmexAB-oprM) were used to determine the ability of PBP inhibitors to penetrate the outer membrane of P. aeruginosa and A. baumannii and assess antibacterial activity against these important gram-negative organisms.
# as §1
# A. baumannii ATCC 19606 = assay: Broth microdilution MIC, A. baumannii ATCC 19606; type: cell-based; details: Acinetobacter baumannii
# Method: as §3, §1
# [4] = system: N. gonorrhoeae ATCC 49226; assay: Liquid broth MIC, N. gonorrhoeae ATCC 49226; type: cell-based; details: Neisseria gonorrhoeae, ATCC49226; N. gonorrhoeae ATCC 49226, liquid broth; read-out: Minimum Inhibitory Concentration, N. gonorrhoeae ATCC 49226
# Summary of the method: (§4)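 MIC taken by eye as the lowest well lacking growth after 40-42 h at 36° C under 5% CO2. Compounds were 2-fold serially diluted; the starting inoculum of 5×10^5 CFU/mL came from direct colony suspensions grown on Kellogg's-supplemented GC agar.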
# N. gonorrhoeae FA1090 = assay: Liquid broth MIC, N. gonorrhoeae FA1090; type: cell-based; details: Neisseria gonorrhoeae; N. gonorrhoeae FA1090, liquid broth; read-out: Minimum Inhibitory Concentration, N. gonorrhoeae FA1090
# Summary of the method: as §4
# N. gonorrhoeae WHO F = assay: Liquid broth MIC, N. gonorrhoeae WHO F; type: cell-based; details: Neisseria gonorrhoeae; N. gonorrhoeae WHO F, liquid broth; read-out: Minimum Inhibitory Concentration, N. gonorrhoeae WHO F
# Summary of the method: as §4
# N. gonorrhoeae FA19 = assay: Liquid broth MIC, N. gonorrhoeae FA19; type: cell-based; details: Neisseria gonorrhoeae; N. gonorrhoeae FA19, liquid broth; read-out: Minimum Inhibitory Concentration, N. gonorrhoeae FA19
# Summary of the method: as §4
# E. coli PBP3 = E. coli PBP3 (Escherichia coli (strain K12), UniProt P0AD68); assay: E. coli PBP3 Bocillin-FL fluorescence polarization competition binding assay; details: fluorescence polarization competition binding with Bocillin-FL; read-out: E. coli K12 PBP3 Potency
# E. coli PBP3, sequence (P0AD68 whole entry): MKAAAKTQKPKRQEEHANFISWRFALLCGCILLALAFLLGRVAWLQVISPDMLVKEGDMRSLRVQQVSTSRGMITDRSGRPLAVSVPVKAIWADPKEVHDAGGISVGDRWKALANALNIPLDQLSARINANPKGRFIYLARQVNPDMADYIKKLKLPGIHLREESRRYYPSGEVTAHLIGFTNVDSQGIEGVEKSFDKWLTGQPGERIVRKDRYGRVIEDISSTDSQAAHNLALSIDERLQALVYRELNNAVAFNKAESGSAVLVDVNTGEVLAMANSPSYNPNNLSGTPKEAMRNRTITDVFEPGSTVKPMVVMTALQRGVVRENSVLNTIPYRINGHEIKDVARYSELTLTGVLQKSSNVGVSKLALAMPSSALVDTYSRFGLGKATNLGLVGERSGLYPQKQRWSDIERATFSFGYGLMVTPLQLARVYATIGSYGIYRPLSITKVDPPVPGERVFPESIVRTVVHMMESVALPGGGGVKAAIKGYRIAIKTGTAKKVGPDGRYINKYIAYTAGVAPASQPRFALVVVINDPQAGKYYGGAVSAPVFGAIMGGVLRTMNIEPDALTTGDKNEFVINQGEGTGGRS
# Summary of the method: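 This was a fluorescence polarization competition with fluorescent penicillin Bocillin-FL (0.1 μM final), read at 490/520 nm for 60 min immediately after its addition. The buffer was Hepes pH 8.0 with 300 mM NaCl and 5% glycerol, containing 1.5 μM PBP and test inhibitor up to 1000 μM. Potency is expressed as EC50 for reducing probe binding.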
# [5] = ATCC25922, read-out: MIC E. coli 25922
# [6] = PAO1, read-out: MIC P. aeruginosa PAO1
# [7] = ATCC19606, read-out: MIC A. baumannii ATCC 19606
SMILES,MIC [1],MIC [2],MIC (E. coli AG100),MIC (E. coli 901C),MIC (E. coli AG100A),MIC (E. coli D22),MIC (K. pneumoniae SI-117),MIC (K. pneumoniae UMM),MIC [3],MIC (P. aeruginosa ATCC 35151),MIC (K. pneumoniae 848844),MIC [4],MIC (N. gonorrhoeae FA1090),MIC (N. gonorrhoeae WHO F),MIC (N. gonorrhoeae FA19),MIC (E. coli ATCC 25922; [5]),MIC (P. aeruginosa PAO1; [6]),MIC (A. baumannii ATCC 19606; [7]),also measured
"CCN1CCN(C(=O)NC(C)(CCO)C(=O)N[C@H]2Cc3cccc(C(=O)O)c3OB2O)C(=O)C1=O (stereo partly drawn) [Example 12, (3R)-3-(2-(4-ethyl-2,3-dioxopiperazine-1-carboxamido)-4-hydroxy-2-methylbutanamido)-2-hydroxy-3,4-dihydro-2H-benzo[e][1,2]oxaborinine-8-carboxylic acid]",> 512 mg/L,> 512 mg/L,–,–,–,–,–,–,–,–,–,–,–,–,–,–,–,–,–
"NCCN1CCN(C(=O)N[C@@H](C(=O)N[C@H]2Cc3cccc(C(=O)O)c3OB2O)c2ccc(O)c(O)c2Cl)C(=O)C1=O [Example 220, (R)-3-((R)-2-(4-(2-aminoethyl)-2,3-dioxopiperazine-1-carboxamido)-2-(2-chloro-3,4-dihydroxyphenyl)acetamido)-2-hydroxy-3,4-dihydro-2H-benzo[e][1,2]oxaborinine-8-carboxylic acid]",–,–,0.5 to 1 µg/mL,0.5 to 1 µg/mL,0.5 to 1 µg/mL,0.5 to 1 µg/mL,2 to 4 µg/mL,0.5 to 1 µg/mL,< 0.25 µg/mL,< 0.25 µg/mL,0.5 to 1 µg/mL,16 to 32 µg/mL,4 to 8 µg/mL,1 to 2 µg/mL,> 64 µg/mL,–,–,–,"MIC (E. coli ATCC 25922; ATCC25922, E. coli ATCC 25922, broth microdilution, read-out: MIC E. coli 25922): 8 to 16 µg/mL; MIC (P. aeruginosa PAO1; P. aeruginosa PAO1, broth microdilution, read-out: MIC P. aeruginosa PAO1): 0.5 to 1 µg/mL; MIC (A. baumannii ATCC 19606; ATCC19606, A. baumannii ATCC 19606, broth microdilution, read-out: MIC A. baumannii ATCC 19606): < 0.25 µg/mL"
"CCN1CCN(C(=O)N2CC(CN)(C(=O)N[C@H]3Cc4cccc(C(=O)O)c4OB3O)C2)C(=O)C1=O [Example 14, (R)-3-(3-(aminomethyl)-1-(4-ethyl-2,3-dioxopiperazine-1-carbonyl)azetidine-3-carboxamido)-2-hydroxy-3,4-dihydro-2H-benzo[e][1,2]oxaborinine-8-carboxylic acid, trifluoroacetic acid salt]",> 512 mg/L,> 512 mg/L,–,–,–,–,–,–,–,–,–,–,–,–,–,–,–,–,–
"CS(=O)(=O)N1CCN(C(=O)NC(C(=O)N[C@H]2Cc3cccc(C(=O)O)c3OB2O)c2ccc(O)c(O)c2Cl)C1=O (stereo partly drawn) [Example 58, (3R)-3-(2-(2-chloro-3,4-dihydroxyphenyl)-2-(3-(methylsulfonyl)-2-oxoimidazolidine-1-carboxamido)acetamido)-2-hydroxy-3,4-dihydro-2H-benzo[e][1,2]oxaborinine-8-carboxylic acid]",32 to 64 mg/L,–,32 to 64 µg/mL,2 to 4 µg/mL,8 to 16 µg/mL,8 to 16 µg/mL,> 128 µg/mL,8 to 16 µg/mL,< 0.25 µg/mL,< 0.25 µg/mL,8 to 16 µg/mL,4 to 8 µg/mL,4 to 8 µg/mL,1 to 2 µg/mL,4 to 8 µg/mL,32 to 64 µg/mL,8 to 16 µg/mL,2 to 4 µg/mL,–
"CCN1CCN(C(=O)NCC2(C(=O)N[C@H]3Cc4cccc(C(=O)O)c4OB3O)CNC2)C(=O)C1=O [Example 53, (R)-3-(3-((4-ethyl-2,3-dioxopiperazine-1-carboxamido)methyl)azetidine-3-carboxamido)-2-hydroxy-3,4-dihydro-2H-benzo[e][1,2]oxaborinine-8-carboxylic acid, trifluoroacetic acid salt]",–,> 512 mg/L,–,–,–,–,–,–,–,–,–,–,–,–,–,–,–,–,–
"NS(=O)(=O)c1ccc([C@@H](NC(=O)N2CCN(CCF)C(=O)C2=O)C(=O)N[C@H]2Cc3cccc(C(=O)O)c3OB2O)cc1O [Example 170, (R)-3-((R)-2-(4-(2-fluoroethyl)-2,3-dioxopiperazine-1-carboxamido)-2-(3-hydroxy-4-sulfamoylphenyl)acetamido)-2-hydroxy-3,4-dihydro-2H-benzo[e][1,2]oxaborinine-8-carboxylic acid]",–,–,8 to 16 µg/mL,< 0.25 µg/mL,2 to 4 µg/mL,0.5 to 1 µg/mL,32 to 64 µg/mL,8 to 16 µg/mL,8 to 16 µg/mL,< 0.25 µg/mL,32 to 64 µg/mL,4 to 8 µg/mL,0.25 to 0.5 µg/mL,< 0.125 µg/mL,4 to 8 µg/mL,8 to 16 µg/mL,> 128 µg/mL,> 128 µg/mL,–
"NS(=O)(=O)c1ccc([C@@H](NC(=O)N2CCN(CCBr)C(=O)C2=O)C(=O)N[C@H]2Cc3cccc(C(=O)O)c3OB2O)cc1O [Example 172, (R)-3-((R)-2-(4-(2-bromoethyl)-2,3-dioxopiperazine-1-carboxamido)-2-(3-hydroxy-4-sulfamoylphenyl)acetamido)-2-hydroxy-3,4-dihydro-2H-benzo[e][1,2]oxaborinine-8-carboxylic acid]",–,–,32 to 64 µg/mL,0.5 to 1 µg/mL,8 to 16 µg/mL,8 to 16 µg/mL,> 128 µg/mL,32 to 64 µg/mL,2 to 4 µg/mL,< 0.25 µg/mL,> 128 µg/mL,–,–,–,–,32 to 64 µg/mL,> 128 µg/mL,> 128 µg/mL,EC50 (E. coli PBP3): < 30 µM
